Biological target: T1, human P2X3 (Homo sapiens, UniProt P56373)
T1 sequence (P56373 1-397): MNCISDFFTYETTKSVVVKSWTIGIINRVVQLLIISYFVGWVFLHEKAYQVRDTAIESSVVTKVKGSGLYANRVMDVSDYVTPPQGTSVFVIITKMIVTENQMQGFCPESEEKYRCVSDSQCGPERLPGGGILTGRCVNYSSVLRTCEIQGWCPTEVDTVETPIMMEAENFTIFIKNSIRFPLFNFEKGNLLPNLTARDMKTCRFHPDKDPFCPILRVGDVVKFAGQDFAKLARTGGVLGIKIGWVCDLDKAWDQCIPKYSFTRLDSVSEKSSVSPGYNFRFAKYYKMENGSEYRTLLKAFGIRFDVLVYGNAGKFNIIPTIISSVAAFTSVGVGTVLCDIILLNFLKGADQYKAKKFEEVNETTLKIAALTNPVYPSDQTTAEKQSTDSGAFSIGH
Assay: cell-based
Procedure: An HEK293 cell line was used as cells. HEK293 cells were placed in a 37° C. incubator with 5% CO2 for culture. Passage was conducted when the cells grew to a density of 80% to 90%. A culture medium in an original 60 mm culture dish was discarded. After the cells were washed 3 times with a sterilized PBS solution, and the solution was blotted up. […] After the trypsin was blotted up, 3 mL of a cell culture medium was added to resuspend the cells. 0.5 mL of a resuspension solution was taken to be added into a new culture dish, and an total culture solution was supplemented to 5 mL. The culture dish was gently shaken to distribute the cells evenly, and then placed in a 37° C. incubator with 5% CO2 for culture.
First, treated slides were spread in a small 35 mm culture dish. 100 μL of resuspended cells were added, and then a total amount of a culture medium was supplemented to 2 mL. Target genes were transferred into the HEK293 cell line by adopting a calcium transfection method. Small dishes to be transfected were subjected to medium change 1 hour before transfection. 2 mL of a fresh cell culture solution was added. A 1.5 mL EP tube was taken, 200 μL of a 0.25 M CaCl2) solution was added, and 3 μg of plasmids to be transfected were added, and even mixing was conducted to form a DNA-CaCl2 solution. […] A pipette tip was used for mixing while adding. After adding all, gentle blowing and beating were conducted 8 to 10 times. After still standing for 5 minutes, they were added into small dishes. The small dishes were shaken slightly to mix the solution evenly, and the placed in a cell incubator. Culture mediums were replaced after 8 to 10 hours. Electrophysiological experiments were performed 24 to 48 hours after transfection.
Electrophysiological recording electrodes were obtained by two-step pulling by using an electrode puller (PP-10, Narishige). After an internal solution is injected into the electrodes, a water inlet resistance is 3 to 5 MΩ. During the experiment, a high potassium salt internal solution containing nystatin (K2SO4 of 75 mM, KCl of 120 mM, MgSO4 of 5 mM, HEPES of 10 mM, adjusting pH to 7.2 with Tris-base, and used after filtration) was used as an electrode internal solution. After the cells were sealed by the electrodes, there was no need to further break cell membranes in a sucked manner, but the cell membranes were bored through the perforation of the nystatin to the cell membranes, to form a hole channel. […] A clamping voltage was −60 mV, a sampling frequency was 10 kHz, and filtering was conducted at 2 kHz.
A working concentration of a P2X3 receptor agonist ATP was 1 μM, and an interval time between two times of ATP administrations was 10 minutes.

IC50 [nM] | SMILES
7540 | Cc1ccc(C2=NN(C(=O)N[C@H](C)c3ccc(Cl)cc3)C[C@@H]2N2CCN(C)CC2=O)cc1 [Compound 2, (S)-4-(4-methyl-2-oxopiperazin-1-yl)-3-(4-methylphenyl)-N-((R)-1-(4-chlorophenyl)ethyl)-4,5-dihydro-1H-pyrazol-1-carboxamide]
215 | Cc1ccc(C2=NN(C(=O)N[C@H](C)c3cnc(C(F)(F)F)nc3)C[C@@H]2N2CCOCC2=O)cc1 [Compound 3]
318 | Cc1ccc(C2=NN(C(=O)N[C@H](C)c3cnc(C(F)(F)F)nc3)C[C@H]2N2CCOCC2=O)cc1 [Compound 3a, (R)-4-(3-oxomorpholin-4-yl)-3-(4-methylphenyl)-N-((R)-1-(2-(trifluoromethyl)pyrimidin-5-yl)ethyl)-4,5-dihydro-1H-pyrazol-1-carboxamide]
409 | CC(=O)N(C)[C@H]1CN(C(=O)N[C@H](C)c2ccc(C(F)(F)F)cc2)N=C1c1ccc(C)cc1 [Compound 5]
353 | CC(=O)N(C)[C@@H]1CN(C(=O)N[C@H](C)c2ccc(C(F)(F)F)cc2)N=C1c1ccc(C)cc1 [Compound 5a, (R)-4-(N-methylacetamido)-3-(4-methylphenyl)-N-((R)-1-(4-(trifluoromethyl)phenyl)ethyl)-4,5-dihydro-1H-pyrazol-1-carboxamide]
1230 | COc1ccc([C@@H](C)NC(=O)N2C[C@H](N3CCOC3=O)C(c3ccc(C)cc3)=N2)cc1OC [Compound 6]
985 | Cc1ccc(C2=NN(C(=O)N[C@H](C)c3ccc4c(c3)OCO4)C[C@@H]2N2CCCC2=O)cc1 [Compound 7, (S)-4-(2-oxopyrrolidin-1-yl)-3-(4-methylphenyl)-N-((R)-1-(3,4-(methylenedioxy)phenyl)ethyl)-4,5-dihydro-1H-pyrazol-1-carboxamide]
793 | CC(=O)N1CCN([C@H]2CN(C(=O)N[C@H](C)c3ccc(C#N)cc3)N=C2c2ccc(C)cc2)C1=O [Compound 8, (S)-4-(3-acetyl-2-oxoimidazolidin-1-yl)-3-(4-methylphenyl)-N-((R)-1-(4-cyanophenyl)ethyl)-4,5-dihydro-1H-pyrazol-1-carboxamide]
529 | COc1ccc([C@@H](C)NC(=O)N2C[C@H](N3CCCC3=O)C(c3ccc(C)cc3)=N2)nc1 [Compound 9]
216 | Cc1ccc(C2=NN(C(=O)N[C@H](C)c3ccc(C(F)(F)F)cn3)C[C@@H]2N2CCCC2=O)cc1 [Compound 10]
136 | Cc1ccc(C2=NN(C(=O)N[C@H](C)c3ccc(C(F)(F)F)cn3)C[C@H]2N2CCCC2=O)cc1 [Compound 10a]
357 | CC(=O)N(C)[C@H]1CN(C(=O)N[C@H](C)c2ccc(Cl)nc2)N=C1c1ccc(C)cc1 [Compound 11]
281 | CC(=O)N(C)[C@@H]1CN(C(=O)N[C@H](C)c2ccc(Cl)nc2)N=C1c1ccc(C)cc1 [Compound 11a]
436 | Cc1ccc(C2=NN(C(=O)N[C@H](C)c3cnc(F)c(F)c3)C[C@@H]2N2CCOC2=O)cc1 [Compound 12]
322 | Cc1ccc(C2=NN(C(=O)N[C@H](C)c3cnc(F)c(F)c3)C[C@H]2N2CCOC2=O)cc1 [Compound 12a]
257 | Cc1ccc(C2=NN(C(=O)N[C@H](C)c3ccc(OC(F)(F)F)nc3)C[C@@H]2N2CCCC2=O)cc1 [Compound 13]
329 | Cc1ccc(C2=NN(C(=O)N[C@H](C)c3ccc(OC(F)(F)F)nc3)C[C@H]2N2CCCC2=O)cc1 [Compound 13a]
736 | COc1ccc([C@@H](C)NC(=O)N2C[C@H](N3CCOCC3)C(c3ccc(F)cc3)=N2)cn1 [Compound 14, (S)-4-(morpholin-4-yl)-3-(4-fluorophenyl)-N-((R)-1-(6-methoxypyridin-3-yl)ethyl)-4,5-dihydro-1H-pyrazol-1-carboxamide]
2300 | Cc1ccc(C2=NN(C(=O)N[C@H](C)c3ccc(C(F)(F)F)nc3)C[C@@H]2N(C)C(=O)CN(C)C)cc1 [Compound 15, (S)-4-(2-(dimethylamino)-N-methylacetamido)-3-(4-methylphenyl)-N-((R)-1-(6-(trifluoromethyl)pyridin-3-yl)ethyl)-4,5-dihydro-1H-pyrazol-1-carboxamide]

From patent publication US12668589B2, “N-formamidopyrazoline derivative as P2X3 receptor antagonist and use thereof” (HANGZHOU WESTAN PHARMACEUTICAL TECHNOLOGY CO., LTD, priority 2020, dated 2026)
